# Source: PubChem BioAssay (NCI)
#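 The compound was tested at five concentrations on cells cultured in 96-well plates, with a 48-hour exposure period. GI50 is the concentration that inhibits growth by half. At the TGI there is no net growth.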
# Tested on: MDA-MB-468 breast
# Assay: NCI-60 cell line screen, 48 h
Structure (SMILES),GI50 [nM],TGI [nM]
C[C@H](O)CNc1cc(-c2[nH]c3cccnc3c2-c2ccc(F)cc2)ccn1,7540,> 25000
CCOC(=O)C1=C(N)CCC1C (stereo not given),> 100000,> 100000
CN1CCN(c2ccc(N3Cc4ccccc4OC4=C3C(=O)c3c(O)ccc(O)c3C4=O)cn2)CC1,229,578
CCN(CC)CCNC(=O)c1cn2ncnc(Oc3ccc(NC(=O)Nc4ccc(Cl)c(C(F)(F)F)c4)cc3)c2c1C,1670,3290
Cc1ccc(NCCN2CCCCC2)c2c(=O)c3ccccc3sc12,2380,5190
O=C(O[C@H]1CN[C@H](C#Cc2cc3ncnc(Nc4ccc5c(cnn5Cc5ccccc5)c4)c3s2)C1)N1CCOCC1,209,2580
Oc1ccccc1N=Cc1c(O)ccc2ccccc12,7090,29500
Cc1ccc(-c2cc3c(NC(=O)C4CC4)ncnc3o2)cc1,> 25000,> 25000
CS(=O)(=O)Nc1ccc(Nc2c3ccccc3nc3cc(N)ccc23)cc1,106,973
O=C(Nc1ccc(Cl)cc1)Nc1ccc(Oc2nncc3ccccc23)cc1,752,2520
O=C(COc1cccc(/C=C2/Oc3ccccc3C2=O)c1)Nc1nccs1,2160,9070
CC(C)CCC[C@@H](C)[C@H]1CCC2C3=CCn4c(=O)ccc(=O)n4C3CC[C@@]21C (stereo not given in full),887,2980
COc1ccccc1/C=C/C=N/NC1=NC2C(S1)N(C)C(=O)N2C (stereo not given),2130,7460
COc1ccc(C(=O)n2nc(/C=C/c3ccc(O)c(OC)c3)cc2/C=C/c2ccc(O)c(OC)c2)cc1,370,2000
CSCCC(NC(=O)CNC(=O)C(CC(=O)O)NC(=O)C(NC(=O)C(NC(=O)C(NC(=O)CNC(=O)C(CCC(N)=O)NC(=O)C(CCSC)NC(=O)C(CC(=O)O)NC(=O)C(C)NC(=O)C(C)NC(=O)C(NC(=O)C(CO)NC(=O)C(N)CC(C)C)C(C)O)C(C)C)C(C)C)C(C)O)C(=O)NC(C)C(=O)NC(CO)C(=O)NCC(=O)NC(CC(C)C)C(=O)NC(CC(=O)O)C(=O)NC(CCCCN)C(=O)NC(CC(=O)O)C(=O)NC(Cc1ccc(O)cc1)C(=O)NC(CC(C)C)C(=O)NC(CCCCN)C(=O)N1CCCC1C(=O)NC(CC(=O)O)C(=O)NC(CC(=O)O)C(=O)O (stereo not given),> 82500,> 82500
Cn1c2c(c3ccc(-c4ccn[nH]4)cc3c1=O)C(=O)c1ccccc1-2,4900,> 100000
O=C1c2ccccc2C(=O)c2c1ccc(C(Br)Br)c2Cl,2000,4540
CN1C(=O)N(C)C2C1NN=c1s/c(=C\c3ccccc3F)c(=O)n12 (stereo not given),211,> 100000
Cc1cc(C(=O)NC(C)(C)C)cc(C#Cc2ccc3c4c(oc3c2)C(C)(C)c2cc(NS(C)(=O)=O)ccc2C4=O)n1,3180,> 100000
COc1cc(-c2cc(/C=C/C(=O)c3ccc(N)cc3)[nH]n2)cc(OC)c1OC,1010,2910
Clc1ccc(N2CCN(CCCN3CCN(c4cccc(Cl)c4)CC3)CC2)cc1,1630,10800
CCOC(=O)c1ccc2[nH]c(O)c(C(=Nc3ccc(N(C)C(=O)CN4CCN(C)CC4)cc3)c3ccccc3)c2c1,827,2290
CN(C)c1ccc(-c2c(NC(C)(C)C)nc3c(OCCc4ccccc4)cccn23)cc1,2290,6280
O=C1/C(=C/c2ccc(O)c(O)c2)COc2ccc(-c3ccccc3)cc21,731,2640
COC(=O)C1CCC(NC(=O)c2csc([C@@H](C[C@H](C(C)C)N(C)C(=O)[C@@H](NC(=O)[C@H]3CCCCN3C)C(C)C)OC(C)=O)n2)CC1 (stereo not given in full),2.45,6.83
CCN(CC)CCOc1nc2c3ccc(Cl)cc3nn2c2ccccc12,1510,3570
Cc1cc(C)c(C#N)c(SCC(=O)c2sc3c(C#N)c(C)cc(C)[n+]3c2[O-])n1,266,–
CCc1c2c(nc3ccc(OC(=O)NCc4ccc(B5OC(C)(C)C(C)(C)O5)cc4)cc13)-c1cc3c(c(=O)n1C2)COC(=O)[C@]3(O)CC,< 12.6,89.4
